Test system: 349418-098-R-PDC complex spheroid viability
Assay: Anticancer human tumor 349418-098-R-PDC patient-derived lung adenocarcinoma cell line growth inhibition
Conditions: for IC50: curve of first compound; for viability, T/C: stronger effect = lower value
From the text: Multicellular complex tumor spheroid response to LSD1 Inhibitor Iadademstat in combination with a variety of drugs and investigational agents in selected tumor cell lines
The current study was undertaken to assess response to LSD1 inhibitors in combination with standard-of-care drugs and investigational agents in solid tumor complex spheroid models as well as in the K-562 leukemia. Complex spheroids include a stromal component modeled by human endothelial cells (HUVEC) and fibroblasts modeled by human mesenchymal stem cells (MSCs). The concentration ranges selected for each drug and investigational agent were based upon clinically achievable concentrations if the clinical Cmax of the agent was known.
Compounds. The drugs and investigational agents used in this study are listed on Table 1. All of the agents used, including staurosporine (NSC755774) and gemcitabine (NSC613327), were obtained from the Developmental Therapeutics Program, NCI. FDA-approved anticancer drugs are available from the NCI at http://dtp.nci.nih.gov/branches/dscb/oncology_drugset_explanation.html. Drugs and investigational agents were >95% pure by proton nuclear magnetic resonance (NMR) and liquid chromatography/mass spectrometry (LC/MS). Stock solutions were prepared at 400x in DMSO, stored at -70 degrees C, and diluted in fresh medium prior to their use. The final concentration of DMSO in cell culture wells never exceeded 0.25% (v/v). The FDA-approved anticancer drug set is available from the Developmental Therapeutics Program at https://dtp.cancer.gov/organization/dscb/obtaining/available_plates.htm. All drugs and investigational agents were tested over a range starting from a high concentration at or near the clinical Cmax and decreasing in half-log increments. If the clinical Cmax for an agent had not been determined, the highest concentration tested was 10 microM.
Cell Lines. The patient-derived cancer cell (PDC) lines: 292921-168-R-J2-PDC, K24384-001-R-PDC, and 521955-158-R2-J5-PDC pancreatic carcinomas, 556581-035-R-J1 ovarian carcinoma, 324938-238-R-J1-PDC, 855422-203-R-J1-PDC and 883617-216-R-J1-PDC urothelial bladder carcinomas, 743489-274-T-PDC renal cell carcinoma, 138582-R-J1 Merkel cell tumor, K60290-347-R-J1 and K57222-313-R-J1-PDC glioblastomas, 653999-131-R-J2-PDC, LG0703-F948-PDC, and 349418-098-R-PDC non-small cell lung carcinomas, 885512-296-R-J2-PDC, 171881-019-R-J1-PDC breast carcinomas and 186277-243-T-J2-PDC and 233499-124-R-J2-PDC colon carcinomas were obtained from the NCI Patient-Derived Models Repository (PDMR, https://pdmr.cancer.gov). The established cell lines NCI/ADR-RES (RRID:CVCL_14520 and OVCAR-5 (RRID:CVCL_1628) ovarian carcinomas, 786-O (RRID:CVCL_1051) and A498 (RRID:CVCL_A498) renal cell carcinoma, NCI-H211 (ATCC, cat. CRL-5824; RRID:CVCL_1529), NCI-H196 (ATCC, cat. CRL-5823, RRID:CVCL_1509), SW 1271 (ATCC, cat. CRL-2177, RRID:CVCL_1716) and NCI-H1876 (ATCC, cat. CRL-5902, RRID:CVCL_1503) small cell lung carcinomas, MDA-MB-231 (RRID:CVCL_0062) and MDA-MB-468 (RRID:CVCL_0419)breast carcinomas (10-12). Pooled donor human umbilical vein endothelial cells (HUVEC, Lonza, cat. CC-2519) and human mesenchymal stem cells (hMSC, Lonza, cat. PT-2501) were purchased from Lonza (Walkersville, MD).
Cell Culture. All cells were maintained in an incubator at 37 degrees C and 5% CO2 with 95% humidity. The PDC lines were cultured according to standard operating procedures established by the NCI PDMR (https://pdmr.cancer.gov). Briefly all PDCs were thawed and cultured in Matrigel-coated flasks prepared with a working solution of 1X Ham's F-12 nutrient mix, without supplementation (Invitrogen, Waltham, MA, cat. 11765054), 100 U/mL penicillin-streptomycin (Invitrogen, cat. 15140122), and 2.5% Matrigel (Corning Inc., Corning, NY, cat. 354248) for the first three passages. […]

[1] = second compound 0.1 µM, first compound 0.000316 µM
[2] = second compound 0.1 µM, first compound 0.001 µM
[3] = second compound 0.1 µM, first compound 0.00316 µM
[4] = second compound 0.1 µM, first compound 0.01 µM
[5] = second compound 0.1 µM, first compound 0.0316 µM
[6] = second compound 0.1 µM, first compound 0.1 µM
[7] = second compound 0.316 µM, first compound 0.000316 µM
[8] = second compound 0.316 µM, first compound 0.001 µM
[9] = second compound 0.316 µM, first compound 0.00316 µM
[10] = second compound 0.316 µM, first compound 0.01 µM
[11] = second compound 0.316 µM, first compound 0.0316 µM
[12] = second compound 0.316 µM, first compound 0.1 µM
[13] = second compound 1 µM, first compound 0.000316 µM
[14] = second compound 1 µM, first compound 0.001 µM
[15] = second compound 1 µM, first compound 0.00316 µM
[16] = second compound 1 µM, first compound 0.01 µM
[17] = second compound 1 µM, first compound 0.0316 µM
[18] = second compound 1 µM, first compound 0.1 µM
[19] = second compound 3.16 µM, first compound 0.000316 µM
[20] = second compound 3.16 µM, first compound 0.001 µM
[21] = second compound 3.16 µM, first compound 0.00316 µM
[22] = second compound 3.16 µM, first compound 0.01 µM
[23] = second compound 3.16 µM, first compound 0.0316 µM
[24] = second compound 3.16 µM, first compound 0.1 µM
[25] = second compound 10 µM, first compound 0.000316 µM
[26] = second compound 10 µM, first compound 0.001 µM
[27] = second compound 10 µM, first compound 0.00316 µM
[28] = second compound 10 µM, first compound 0.01 µM
[29] = second compound 10 µM, first compound 0.0316 µM
[30] = second compound 10 µM, first compound 0.1 µM
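Note: spheroids exposed to agents for seven days before readout.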
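Throughout, for viability, T/C: 100% = DMSO vehicle control wells.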

SMILES	IC50 (second compound 0.1 µM)	IC50 (second compound 0.316 µM)	IC50 (second compound 1 µM)	IC50 (second compound 3.16 µM)	IC50 (second compound 10 µM)	viability, T/C [1]	viability, T/C [2]	viability, T/C [3]	viability, T/C [4]	viability, T/C [5]	viability, T/C [6]	viability, T/C [7]	viability, T/C [11]	viability, T/C [12]	viability, T/C [17]	viability, T/C [18]	viability, T/C [23]	viability, T/C [24]	viability, T/C [29]	viability, T/C [30]	other results
CC(C)CC(NC(=O)C(Cc1ccccc1)NC(=O)c1cnccn1)B(O)O (stereo not given) + NC1CCC(NC2CC2c2ccccc2)CC1	< 0.316 nM	< 0.316 nM	< 0.316 nM	< 0.316 nM	< 0.316 nM	9.12%	2.17%	1.09%	0.81%	0.69%	0.6%	7.64%	0.64%	0.58%	0.7%	0.62%	0.46%	0.51%	0.75%	0.41%	viability, T/C [8]: 2.21%; viability, T/C [9]: 1.14%; viability, T/C [10]: 0.67%; viability, T/C [13]: 9.06%; viability, T/C [14]: 1.64%; viability, T/C [15]: 0.88%; viability, T/C [16]: 0.64%; viability, T/C [19]: 8.64%; viability, T/C [20]: 1.66%; viability, T/C [21]: 0.69%; viability, T/C [22]: 0.63%; viability, T/C [25]: 6.88%; viability, T/C [26]: 1.23%; viability, T/C [27]: 0.77%; viability, T/C [28]: 0.45%
CC[C@@]1(O)C(=O)OCc2c1cc1n(c2=O)Cc2cc3c(CN(C)C)c(O)ccc3nc2-1 + NC1CC1c1ccc(-c2cccc(O)c2)cc1	4.97 nM	4.86 nM	4.78 nM	4.69 nM	3.8 nM	115%	108%	74.8%	11.4%	5.55%	3.01%	120%	4.91%	2.78%	5.15%	2.6%	5.39%	2.8%	5.04%	2.95%	viability, T/C [8]: 116%; viability, T/C [9]: 74%; viability, T/C [10]: 9.75%; viability, T/C [13]: 118%; viability, T/C [14]: 116%; viability, T/C [15]: 72.4%; viability, T/C [16]: 10.1%; viability, T/C [19]: 122%; viability, T/C [20]: 112%; viability, T/C [21]: 70.8%; viability, T/C [22]: 10.1%; viability, T/C [25]: 91.9%; viability, T/C [26]: 90.1%; viability, T/C [27]: 57.8%; viability, T/C [28]: 8.84%
CC1COCCN1c1cc(C2(S(C)(=N)=O)CC2)nc(-c2ccnc3[nH]ccc23)n1 (stereo not given) + NC1CC1c1ccc(-c2cccc(O)c2)cc1	1050 nM	1020 nM	931 nM	1070 nM	709 nM					114%	113%		120%	111%	115%	116%	118%	103%	91.3%	94.1%	viability, T/C (second compound 0.1 µM, first compound 0.316 µM): 111%; viability, T/C (second compound 0.1 µM, first compound 1 µM): 51.8%; viability, T/C (second compound 0.1 µM, first compound 3.16 µM): 11.8%; viability, T/C (second compound 0.1 µM, first compound 10 µM): 10.9%; viability, T/C (second compound 0.316 µM, first compound 0.316 µM): 104%; viability, T/C (second compound 0.316 µM, first compound 1 µM): 51.2%; viability, T/C (second compound 0.316 µM, first compound 3.16 µM): 11.5%; viability, T/C (second compound 0.316 µM, first compound 10 µM): 9.93%; viability, T/C (second compound 1 µM, first compound 0.316 µM): 115%; viability, T/C (second compound 1 µM, first compound 1 µM): 45.6%; viability, T/C (second compound 1 µM, first compound 3.16 µM): 13.9%; viability, T/C (second compound 1 µM, first compound 10 µM): 10.7%; viability, T/C (second compound 3.16 µM, first compound 0.316 µM): 115%; viability, T/C (second compound 3.16 µM, first compound 1 µM): 52.3%; viability, T/C (second compound 3.16 µM, first compound 3.16 µM): 13.3%; viability, T/C (second compound 3.16 µM, first compound 10 µM): 9.27%; viability, T/C (second compound 10 µM, first compound 0.316 µM): 86.6%; viability, T/C (second compound 10 µM, first compound 1 µM): 34.3%; viability, T/C (second compound 10 µM, first compound 3.16 µM): 11.2%; viability, T/C (second compound 10 µM, first compound 10 µM): 6.83%

From PubChem BioAssay AID1918936 (Molecular Pharmacology Branch, DTP, NCI, 2023)
